In experiment [1] the test system is SOCE (store operated calcium entry) in CHO cells. The experiment in a line: Assay of SOCE (store operated calcium entry)-inhibiting action. Type of experiment: cell-based, Chinese hamster. The conditions noted are these: Cricetulus griseus, CHO, CHO cells, thapsigargin, read-out: SOCE level (percentage of inhibition); for inhibition at 10 µM: test compound 10 μmol; for inhibition at 30 µM: test compound 30 μmol; for inhibition at 100 µM: test compound 100 μmol. The procedure: The extracellular fluid (i.e., medium) of cultured Chinese hamster ovary (CHO) cells was replaced by BSS containing no calcium. One minute later, a test compound was added. Two minutes later, 1 μM thapsigargin was added to cause depletion of the intracellular calcium store. Nine minutes later, calcium chloride (final concentration: 2 mM) was added to the extracellular fluid. The SOCE-inhibiting action levels at different compound concentrations after the addition of calcium chloride were determined as the percentage of inhibition (%) by evaluating the influence of the compound on the degree of increase in the intracellular calcium concentration.
(§1) Hereafter, the numerals in parentheses written after the TG level, the SOCE level, and the IICR level correspond to the test compound concentrations. The number following the name of each title compound used in the Examples below represents a compound ID number designated arbitrarily by the present inventors.

For experiment [2], the system named is IICR (IP3 induced calcium release) in CHO cells. The experiment is described as follows: Assay of IICR (IP3 induced calcium release)-inhibiting action. Type of experiment: cell-based, Chinese hamster. The following applies: Cricetulus griseus, CHO, CHO cells, 10 μM ATP, read-out: IICR level (percentage of inhibition); for inhibition at 10 µM: test compound 10 μmol; for inhibition at 30 µM: test compound 30 μmol; for inhibition at 100 µM: test compound 100 μmol. The procedure: The extracellular fluid (i.e., medium) of cultured CHO cells was replaced by BSS containing calcium. One minute later, a test compound was added. Two minutes later, 10 μM ATP was added. The IICR-inhibiting action levels at different compound concentrations after the addition of ATP were determined as the percentage of inhibition (%) by evaluating the influence of the compound on the degree of increase in the intracellular calcium concentration.
as §1

Usually inhibition stands for the drop in the measured response relative to a control, in per cent.

With `Cc1cccc2cc(C(=O)CCN(Cc3ccccc3)C(C)C)ccc12` [Example 79, 2-(N-isopropylbenzyl)aminoethyl-5-methyl-2-naphthylketone], in experiment [1], the inhibition at 10 µM came out at 10%, the inhibition at 30 µM is 30% and the inhibition at 100 µM was determined as 70%. Moreover, in experiment [2], the inhibition at 10 µM came to 70%, the inhibition at 30 µM is 90% and the inhibition at 100 µM turned out to be 90%.

On to `Cc1cccc2cc(C(=O)CCN(c3ccccc3)c3ccccc3)ccc12` [Example 80, 2-(N-diphenyl)aminoethyl-5-methyl-2-naphthylketone], for which, in experiment [1], the inhibition at 10 µM was 10%, the inhibition at 30 µM amounted to 30% and the inhibition at 100 µM turned out to be 50%. In addition, in experiment [2], the inhibition at 10 µM came out at 10%, the inhibition at 30 µM was 50% and the inhibition at 100 µM amounted to 90%.

As for `Cc1cccc2cc(C(=O)CCN3CCCCC3)ccc12` [Example 81, 2-piperidinoethyl-5-methyl-2-naphthylketone], in experiment [1], the inhibition at 10 µM worked out at 0%, the inhibition at 30 µM turned out to be 10% and the inhibition at 100 µM came out at 40%. In addition, in experiment [2], the inhibition at 10 µM was 0%, the inhibition at 30 µM was 10% and the inhibition at 100 µM came to 30%.

Regarding `CC(C)N(CCC(=O)c1cccc2ccccc12)Cc1ccccc1` [Example 82, 1-(N-benzylisopropyl)aminoethyl-1-naphthylketone], in experiment [1], the inhibition at 10 µM came to 0%, the inhibition at 30 µM was determined as 0% and the inhibition at 100 µM amounted to 20%. In experiment [2], the inhibition at 10 µM came to 50%, the inhibition at 30 µM worked out at 70% and the inhibition at 100 µM was 100%.

For the compound `CC(C)N(CCC(=O)c1ccc2c(Cl)cccc2c1)Cc1ccccc1` [Example 84, 2-(N-isopropylbenzyl)aminoethyl-5-chloro-2-naphthylketone], in experiment [1], the inhibition at 10 µM was found to be 20%, the inhibition at 30 µM stood at 30% and the inhibition at 100 µM was 70%. In experiment [2], the inhibition at 10 µM is 90%, the inhibition at 30 µM came out at 100% and the inhibition at 100 µM was determined as 100%.

For the compound `CC(C)N(CCC(=O)c1ccc(Oc2ccccc2)cc1)Cc1ccccc1` [Example 85, 2-(N-isopropylbenzyl)aminoethyl-4-phenoxyphenylketone], in experiment [1], the inhibition at 10 µM was found to be 10%, the inhibition at 30 µM worked out at 20% and the inhibition at 100 µM came out at 30%. In addition, in experiment [2], the inhibition at 10 µM was determined as 50%, the inhibition at 30 µM amounted to 50% and the inhibition at 100 µM was found to be 95%.

With `CN(CCC(=O)c1ccc(Oc2ccccc2)cc1)Cc1ccccc1` [Example 86, 2-(N-methylbenzyl)aminoethyl-4-phenoxyphenylketone], in experiment [1], the inhibition at 10 µM was 0%, the inhibition at 30 µM worked out at 20% and the inhibition at 100 µM was determined as 50%. Further, in experiment [2], the inhibition at 10 µM stood at 30%, the inhibition at 30 µM came to 70% and the inhibition at 100 µM came out at 95%.

`O=C(CCNCC(O)c1ccccc1)c1ccc(Oc2ccccc2)cc1` (stereo not drawn) [Example 87, 2-(N-2-hydroxy-2-phenylethyl)aminoethyl-4-phenoxyphenylketone]: in experiment [1], the inhibition at 10 µM is 0%, the inhibition at 30 µM is 0% and the inhibition at 100 µM was 20%. Besides, in experiment [2], the inhibition at 10 µM came to 10%, the inhibition at 30 µM was found to be 10% and the inhibition at 100 µM was determined as 90%.

For `O=C(CCN1CCCCC1)c1ccc2c(Cl)cccc2c1` [Example 88, 2-piperidinoethyl-5-chloro-2-naphthylketone], in experiment [1], the inhibition at 10 µM is 0%, the inhibition at 30 µM came out at 0% and the inhibition at 100 µM worked out at 20%. Further, in experiment [2], the inhibition at 10 µM is 10%, the inhibition at 30 µM worked out at 10% and the inhibition at 100 µM was determined as 100%.

Consider `O=C(CCN(CCO)Cc1ccccc1)c1ccc2c(Cl)cccc2c1` [Example 89, 2-(N-2-hydroxyethylbenzyl)aminoethyl-5-chloro-2-naphthylketone], for which, in experiment [1], the inhibition at 10 µM is 0%, the inhibition at 30 µM was determined as 10% and the inhibition at 100 µM was 80%. Besides, in experiment [2], the inhibition at 10 µM is 30%, the inhibition at 30 µM was 80% and the inhibition at 100 µM was determined as 100%.

In the case of `CCC(CO)(CO)NCCC(=O)c1ccc2c(Cl)cccc2c1` [Example 90, 2-(N-1,1-dihydroxymethylpropyl)aminoethyl-5-chloro-2-naphthylketone], in experiment [1], the inhibition at 10 µM was 0%, the inhibition at 30 µM came out at 10% and the inhibition at 100 µM was found to be 30%. For the same compound, in experiment [2], the inhibition at 10 µM was found to be 10%, the inhibition at 30 µM is 20% and the inhibition at 100 µM turned out to be 100%.

With `CCCCN(CCO)CCC(=O)c1ccc2c(Cl)cccc2c1` [Example 91, 2-(N-2-hydroxyethylbutyl)aminoethyl-5-chloro-2-naphthylketone], in experiment [1], the inhibition at 10 µM is 0%, the inhibition at 30 µM was 10% and the inhibition at 100 µM was 90%. For the same compound, in experiment [2], the inhibition at 10 µM worked out at 20%, the inhibition at 30 µM was determined as 90% and the inhibition at 100 µM is 100%.

With `C=CCC(=O)c1ccc2ccccc2c1` [Example 92, Allyl-2-naphthylketone], in experiment [1], the inhibition at 10 µM was 0%, the inhibition at 30 µM stood at 0% and the inhibition at 100 µM was 0%. Moreover, in experiment [2], the inhibition at 10 µM was found to be 0%, the inhibition at 30 µM came out at 0% and the inhibition at 100 µM worked out at 30%.

In the case of `C=CCC(=O)c1cccc2ccccc12` [Example 93, Allyl-1-naphthylketone], in experiment [1], the inhibition at 10 µM came to 0%, the inhibition at 30 µM was found to be 0% and the inhibition at 100 µM was 30%. Further, in experiment [2], the inhibition at 10 µM is 20%, the inhibition at 30 µM turned out to be 70% and the inhibition at 100 µM stood at 90%.

`CC(C)(C)N(CCC(=O)c1ccccn1)Cc1ccccc1` [Example 94, 2-(N-t-butylbenzyl)aminoethyl-2-pyridylketone]: in experiment [1], the inhibition at 10 µM came out at 0%, the inhibition at 30 µM was determined as 0% and the inhibition at 100 µM came out at 0%. Besides, in experiment [2], the inhibition at 10 µM is 30%, the inhibition at 30 µM was 90% and the inhibition at 100 µM worked out at 100%.

As to `O=C(CCN1CCCCC1)c1ccccn1` [Example 95, 2-piperidinoethyl-2-pyridylketone], in experiment [1], the inhibition at 10 µM was found to be 0%, the inhibition at 30 µM was 0% and the inhibition at 100 µM is 0%. In experiment [2], the inhibition at 10 µM came to 0%, the inhibition at 30 µM came out at 10% and the inhibition at 100 µM is 10%.

Turning to `O=C(CCN(CCO)Cc1ccccc1)c1ccccn1` [Example 96], in experiment [1], the inhibition at 10 µM worked out at 0%, the inhibition at 30 µM was found to be 0% and the inhibition at 100 µM turned out to be 0%. In addition, in experiment [2], the inhibition at 10 µM came out at 20%, the inhibition at 30 µM stood at 30% and the inhibition at 100 µM was determined as 100%.

On to `COC(=O)C(CCC(=O)c1ccc2ccccc2c1)C(C)=O` (stereo not drawn) [Example 97, 3-acetyl-3-methoxycarbonylpropyl-2-naphthylketone], for which, in experiment [1], the inhibition at 10 µM is 0%, the inhibition at 30 µM was found to be 10% and the inhibition at 100 µM turned out to be 90%. Also, in experiment [2], the inhibition at 10 µM stood at 0%, the inhibition at 30 µM is 10% and the inhibition at 100 µM was determined as 70%.
